Test results taken from article PMC5592744 (Frontiers in Microbiology, 2017).

How the values were obtained:
Assay type in all cases: biochemical
Conditions in all cases: 76 μM chalcone, FRET assay
[1] = target: V168A-SrtA (Staphylococcus aureus, UniProt Q2FV99, V168A)
[2] = target: I182A-SrtA (Staphylococcus aureus, UniProt Q2FV99, I182A)
[3] = target: R197A-SrtA (Staphylococcus aureus, UniProt Q2FV99, R197A)

Measured: sensitivity of mutant SrtA to chalcone compared with WT-SrtA

O=C(/C=C/c1ccccc1)c1ccccc1 [chalcone]
significantly less sensitive: all assays above
